Experimental data taken from ChEMBL document CHEMBL4507311, “Data for DCP probe A-1155463” (2021).

Legend:
[1] = molecular target: Epithelial discoidin domain-containing receptor 1 (Homo sapiens) (UniProt Q08345); details: Compound concentration 1000.0 nM
[2] = molecular target: Calcium/calmodulin-dependent protein kinase type IV (Homo sapiens) (UniProt Q16566); details: Compound concentration 1000.0 nM
[3] = molecular target: Insulin receptor (Homo sapiens) (UniProt P06213); details: Compound concentration 1000.0 nM
[4] = molecular target: Insulin receptor-related protein (Homo sapiens) (UniProt P14616); details: Compound concentration 1000.0 nM
[5] = system: Phosphatidylinositol 4,5-bisphosphate 3-kinase catalytic subunit alpha isoform (Homo sapiens), P42336 [E545K]; details: Compound concentration 1000.0 nM
[6] = molecular target: Cyclin-dependent kinase 17 (Homo sapiens) (UniProt Q00537); details: Compound concentration 1000.0 nM
[7] = system: Receptor-type tyrosine-protein kinase FLT3 (Homo sapiens), P36888 [R834Q]; details: Compound concentration 1000.0 nM
[8] = molecular target: Serine/threonine-protein kinase D2 (Homo sapiens) (UniProt Q9BZL6); details: Compound concentration 1000.0 nM
[9] = molecular target: Serine/threonine-protein kinase NLK (Homo sapiens) (UniProt Q9UBE8); details: Compound concentration 1000.0 nM
[10] = molecular target: Ribosomal protein S6 kinase alpha-1 (Homo sapiens) (UniProt Q15418); details: Compound concentration 1000.0 nM
[11] = molecular target: T1, 5-hydroxytryptamine receptor 2C (Homo sapiens) (UniProt P28335); details: Compound concentration 10.0 uM
T1 sequence (whole entry): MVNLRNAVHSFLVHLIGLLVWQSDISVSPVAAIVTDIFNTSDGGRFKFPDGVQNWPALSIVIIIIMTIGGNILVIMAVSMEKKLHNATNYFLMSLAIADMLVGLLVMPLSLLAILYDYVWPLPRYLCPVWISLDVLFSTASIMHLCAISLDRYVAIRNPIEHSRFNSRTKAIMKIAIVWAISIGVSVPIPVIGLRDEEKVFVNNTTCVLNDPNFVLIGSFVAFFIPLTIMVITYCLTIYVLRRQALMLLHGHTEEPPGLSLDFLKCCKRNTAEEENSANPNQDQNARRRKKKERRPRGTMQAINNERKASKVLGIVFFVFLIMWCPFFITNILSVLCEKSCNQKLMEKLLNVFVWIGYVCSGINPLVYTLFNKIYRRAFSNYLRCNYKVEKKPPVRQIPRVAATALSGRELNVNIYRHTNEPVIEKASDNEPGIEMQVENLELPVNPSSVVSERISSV

[12] = molecular target: TGF-beta receptor type-1 (Homo sapiens) (UniProt P36897); details: Compound concentration 1000.0 nM
[13] = molecular target: Serine/threonine-protein kinase Nek4 (Homo sapiens) (UniProt P51957); details: Compound concentration 1000.0 nM
[14] = molecular target: Mitogen-activated protein kinase kinase kinase 14 (Homo sapiens) (UniProt Q99558); details: Compound concentration 1000.0 nM
[15] = molecular target: Cyclin-dependent kinase-like 3 (Homo sapiens) (UniProt Q8IVW4); details: Compound concentration 1000.0 nM
[16] = molecular target: Mitogen-activated protein kinase 15 (Homo sapiens) (UniProt Q8TD08); details: Compound concentration 1000.0 nM
[17] = molecular target: Activin receptor type-1-like (Homo sapiens) (UniProt P37023); details: Compound concentration 1000.0 nM
[18] = molecular target: Receptor tyrosine-protein kinase erbB-4 (Homo sapiens) (UniProt Q15303); details: Compound concentration 1000.0 nM
[19] = molecular target: Proto-oncogene tyrosine-protein kinase receptor Ret (Homo sapiens) (UniProt P07949); details: Compound concentration 1000.0 nM
[20] = system: Receptor-type tyrosine-protein kinase FLT3 (Homo sapiens), P36888 [UNDEFINED MUTATION]; details: Compound concentration 1000.0 nM
[21] = molecular target: Cyclin-dependent kinase 11A (Homo sapiens) (UniProt Q9UQ88); details: Compound concentration 1000.0 nM
[22] = molecular target: Discoidin domain-containing receptor 2 (Homo sapiens) (UniProt Q16832); details: Compound concentration 1000.0 nM
[23] = molecular target: T2, Muscarinic acetylcholine receptor M4 (Homo sapiens) (UniProt P08173); details: Compound concentration 10.0 uM
T2 sequence (whole entry): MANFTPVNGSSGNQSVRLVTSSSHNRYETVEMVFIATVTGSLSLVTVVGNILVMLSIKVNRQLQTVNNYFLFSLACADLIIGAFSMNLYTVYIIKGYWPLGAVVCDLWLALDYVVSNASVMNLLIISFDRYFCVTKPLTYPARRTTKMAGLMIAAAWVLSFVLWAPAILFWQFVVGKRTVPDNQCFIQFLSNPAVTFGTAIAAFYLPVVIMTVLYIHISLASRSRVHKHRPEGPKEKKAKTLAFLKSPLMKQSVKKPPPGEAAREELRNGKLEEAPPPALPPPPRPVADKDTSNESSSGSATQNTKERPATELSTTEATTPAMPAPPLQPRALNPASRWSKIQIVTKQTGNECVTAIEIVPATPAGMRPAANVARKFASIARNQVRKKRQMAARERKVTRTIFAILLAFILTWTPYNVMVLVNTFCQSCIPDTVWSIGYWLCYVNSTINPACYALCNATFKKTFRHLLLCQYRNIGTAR

[24] = system: Tyrosine-protein kinase ABL1 (Homo sapiens), P00519 [T315I]; details: Compound concentration 1000.0 nM
[25] = molecular target: Megakaryocyte-associated tyrosine-protein kinase (Homo sapiens) (UniProt P42679); details: Compound concentration 1000.0 nM
[26] = molecular target: Phosphatidylinositol 4-phosphate 5-kinase type-1 gamma (Homo sapiens) (UniProt O60331); details: Compound concentration 1000.0 nM
[27] = molecular target: Casein kinase I isoform gamma-2 (Homo sapiens) (UniProt P78368); details: Compound concentration 1000.0 nM
[28] = molecular target: Serine/threonine-protein kinase N1 (Homo sapiens) (UniProt Q16512); details: Compound concentration 1000.0 nM
[29] = molecular target: Ephrin type-B receptor 1 (Homo sapiens) (UniProt P54762); details: Compound concentration 1000.0 nM
[30] = molecular target: Casein kinase II subunit alpha' (Homo sapiens) (UniProt P19784); details: Compound concentration 1000.0 nM
[31] = molecular target: Serine/threonine-protein kinase SIK1 (Homo sapiens) (UniProt P57059); details: Compound concentration 1000.0 nM
[32] = molecular target: Protein kinase C eta type (Homo sapiens) (UniProt P24723); details: Compound concentration 1000.0 nM

Chain of Discoidin domain-containing receptor 2 (Homo sapiens) (Q16832 whole entry, the tested form may be a part): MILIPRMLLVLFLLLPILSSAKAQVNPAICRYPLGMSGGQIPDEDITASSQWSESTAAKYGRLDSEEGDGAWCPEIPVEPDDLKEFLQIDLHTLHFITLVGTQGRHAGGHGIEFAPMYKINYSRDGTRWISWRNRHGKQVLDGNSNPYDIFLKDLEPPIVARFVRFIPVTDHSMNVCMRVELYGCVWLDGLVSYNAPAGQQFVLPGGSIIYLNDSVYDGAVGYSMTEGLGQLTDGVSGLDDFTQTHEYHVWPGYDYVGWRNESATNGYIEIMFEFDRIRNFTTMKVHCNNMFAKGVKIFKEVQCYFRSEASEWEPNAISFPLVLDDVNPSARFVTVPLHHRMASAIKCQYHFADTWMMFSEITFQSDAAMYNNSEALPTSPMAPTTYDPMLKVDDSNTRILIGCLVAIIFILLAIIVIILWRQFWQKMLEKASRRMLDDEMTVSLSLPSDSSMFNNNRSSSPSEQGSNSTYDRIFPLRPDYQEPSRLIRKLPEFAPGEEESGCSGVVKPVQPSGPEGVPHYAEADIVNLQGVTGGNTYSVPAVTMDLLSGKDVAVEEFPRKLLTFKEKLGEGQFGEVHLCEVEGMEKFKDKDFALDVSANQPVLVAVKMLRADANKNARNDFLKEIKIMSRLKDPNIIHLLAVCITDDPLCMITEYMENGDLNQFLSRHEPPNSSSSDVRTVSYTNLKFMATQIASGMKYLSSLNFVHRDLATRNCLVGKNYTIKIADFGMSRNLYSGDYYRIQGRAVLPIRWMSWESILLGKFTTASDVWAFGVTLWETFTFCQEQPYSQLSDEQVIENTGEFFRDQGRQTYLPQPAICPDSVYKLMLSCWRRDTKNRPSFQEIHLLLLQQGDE
Chain of Phosphatidylinositol 4-phosphate 5-kinase type-1 gamma (Homo sapiens) (O60331 whole entry, canonical isoform): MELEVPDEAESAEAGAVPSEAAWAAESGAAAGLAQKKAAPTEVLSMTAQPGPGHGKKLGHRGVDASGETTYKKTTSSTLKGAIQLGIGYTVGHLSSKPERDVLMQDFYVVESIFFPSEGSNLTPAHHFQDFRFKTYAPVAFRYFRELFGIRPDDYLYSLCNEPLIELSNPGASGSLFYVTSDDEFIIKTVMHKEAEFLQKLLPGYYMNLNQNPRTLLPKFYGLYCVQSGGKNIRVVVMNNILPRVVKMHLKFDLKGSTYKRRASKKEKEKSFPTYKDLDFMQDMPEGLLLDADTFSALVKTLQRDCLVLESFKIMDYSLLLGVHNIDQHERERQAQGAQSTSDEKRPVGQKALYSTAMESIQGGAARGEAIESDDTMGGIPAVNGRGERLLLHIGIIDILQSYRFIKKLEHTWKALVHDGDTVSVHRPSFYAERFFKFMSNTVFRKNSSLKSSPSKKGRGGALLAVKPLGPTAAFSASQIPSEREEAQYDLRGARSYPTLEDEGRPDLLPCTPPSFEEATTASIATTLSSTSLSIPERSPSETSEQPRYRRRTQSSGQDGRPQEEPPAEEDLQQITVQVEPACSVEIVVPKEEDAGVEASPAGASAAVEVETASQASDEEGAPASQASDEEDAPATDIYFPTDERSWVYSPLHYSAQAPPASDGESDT
Chain of Megakaryocyte-associated tyrosine-protein kinase (Homo sapiens) (P42679 whole entry): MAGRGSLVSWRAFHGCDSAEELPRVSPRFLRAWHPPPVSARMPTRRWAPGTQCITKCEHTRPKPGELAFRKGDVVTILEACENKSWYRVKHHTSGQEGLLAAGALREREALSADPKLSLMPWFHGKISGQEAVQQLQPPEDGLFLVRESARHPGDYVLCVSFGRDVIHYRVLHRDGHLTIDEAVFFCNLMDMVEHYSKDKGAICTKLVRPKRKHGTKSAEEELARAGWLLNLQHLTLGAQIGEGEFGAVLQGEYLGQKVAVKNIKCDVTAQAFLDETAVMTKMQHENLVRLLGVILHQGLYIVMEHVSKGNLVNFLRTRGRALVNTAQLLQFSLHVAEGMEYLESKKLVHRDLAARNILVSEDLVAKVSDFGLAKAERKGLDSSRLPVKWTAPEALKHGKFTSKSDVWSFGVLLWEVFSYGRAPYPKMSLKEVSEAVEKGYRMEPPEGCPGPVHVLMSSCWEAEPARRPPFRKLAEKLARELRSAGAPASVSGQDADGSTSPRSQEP
Chain of Mitogen-activated protein kinase 15 (Homo sapiens) (Q8TD08 whole entry): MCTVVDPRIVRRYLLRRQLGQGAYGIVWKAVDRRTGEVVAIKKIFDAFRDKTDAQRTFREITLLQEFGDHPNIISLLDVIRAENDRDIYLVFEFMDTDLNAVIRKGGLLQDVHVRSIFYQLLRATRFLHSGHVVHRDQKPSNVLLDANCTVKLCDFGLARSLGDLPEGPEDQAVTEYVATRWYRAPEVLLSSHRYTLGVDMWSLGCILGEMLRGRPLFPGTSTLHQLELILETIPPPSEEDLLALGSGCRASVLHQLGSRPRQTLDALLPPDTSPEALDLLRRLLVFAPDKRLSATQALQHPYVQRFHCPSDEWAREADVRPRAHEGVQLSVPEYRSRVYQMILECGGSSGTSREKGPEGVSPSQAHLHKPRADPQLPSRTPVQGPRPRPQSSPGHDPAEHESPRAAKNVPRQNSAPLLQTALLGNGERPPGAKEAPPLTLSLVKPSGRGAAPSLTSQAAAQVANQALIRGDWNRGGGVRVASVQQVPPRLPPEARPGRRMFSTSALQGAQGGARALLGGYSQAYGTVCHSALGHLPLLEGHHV
Chain of Activin receptor type-1-like (Homo sapiens) (P37023 whole entry): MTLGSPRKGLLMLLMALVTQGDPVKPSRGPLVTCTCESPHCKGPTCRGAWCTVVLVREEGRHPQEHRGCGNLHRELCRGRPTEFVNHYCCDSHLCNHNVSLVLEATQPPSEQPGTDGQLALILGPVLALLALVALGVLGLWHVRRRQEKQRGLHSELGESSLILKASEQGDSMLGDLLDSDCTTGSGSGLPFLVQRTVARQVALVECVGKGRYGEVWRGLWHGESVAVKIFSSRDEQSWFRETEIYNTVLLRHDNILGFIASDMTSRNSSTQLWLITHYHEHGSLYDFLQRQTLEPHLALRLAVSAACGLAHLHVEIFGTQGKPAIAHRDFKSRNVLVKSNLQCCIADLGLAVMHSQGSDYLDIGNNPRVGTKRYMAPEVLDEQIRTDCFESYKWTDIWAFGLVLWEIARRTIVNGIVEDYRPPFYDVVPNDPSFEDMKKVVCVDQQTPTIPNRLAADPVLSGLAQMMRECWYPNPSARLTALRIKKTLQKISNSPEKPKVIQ
Chain of Cyclin-dependent kinase-like 3 (Homo sapiens) (Q8IVW4 whole entry, looked up): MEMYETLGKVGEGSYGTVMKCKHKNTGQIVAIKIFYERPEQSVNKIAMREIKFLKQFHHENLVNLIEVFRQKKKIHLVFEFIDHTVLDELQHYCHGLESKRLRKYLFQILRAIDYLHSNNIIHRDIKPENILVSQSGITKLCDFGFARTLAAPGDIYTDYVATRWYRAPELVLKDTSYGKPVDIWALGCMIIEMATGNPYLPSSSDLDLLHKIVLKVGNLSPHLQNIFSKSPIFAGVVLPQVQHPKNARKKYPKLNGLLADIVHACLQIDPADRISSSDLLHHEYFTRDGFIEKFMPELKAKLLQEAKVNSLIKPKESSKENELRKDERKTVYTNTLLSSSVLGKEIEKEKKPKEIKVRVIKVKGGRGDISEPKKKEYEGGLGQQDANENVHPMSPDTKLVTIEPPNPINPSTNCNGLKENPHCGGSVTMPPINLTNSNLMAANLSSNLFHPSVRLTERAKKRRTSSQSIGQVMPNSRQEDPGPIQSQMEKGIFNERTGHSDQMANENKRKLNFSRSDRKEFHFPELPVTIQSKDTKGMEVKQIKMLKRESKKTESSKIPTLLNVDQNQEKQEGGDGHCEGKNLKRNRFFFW
Chain of Casein kinase I isoform gamma-2 (Homo sapiens) (P78368 whole entry, looked up, canonical isoform): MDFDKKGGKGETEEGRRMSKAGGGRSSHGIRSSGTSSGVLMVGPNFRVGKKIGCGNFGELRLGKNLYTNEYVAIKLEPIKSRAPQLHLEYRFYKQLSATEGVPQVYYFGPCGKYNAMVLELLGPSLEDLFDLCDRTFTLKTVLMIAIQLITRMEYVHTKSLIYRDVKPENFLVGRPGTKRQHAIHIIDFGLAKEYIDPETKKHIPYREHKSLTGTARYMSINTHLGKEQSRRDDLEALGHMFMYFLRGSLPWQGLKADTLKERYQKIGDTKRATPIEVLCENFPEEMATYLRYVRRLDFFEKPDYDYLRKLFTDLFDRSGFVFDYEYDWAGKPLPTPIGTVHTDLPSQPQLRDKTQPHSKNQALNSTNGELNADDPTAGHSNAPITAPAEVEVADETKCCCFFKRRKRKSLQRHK
Chain of Ribosomal protein S6 kinase alpha-1 (Homo sapiens) (Q15418 whole entry): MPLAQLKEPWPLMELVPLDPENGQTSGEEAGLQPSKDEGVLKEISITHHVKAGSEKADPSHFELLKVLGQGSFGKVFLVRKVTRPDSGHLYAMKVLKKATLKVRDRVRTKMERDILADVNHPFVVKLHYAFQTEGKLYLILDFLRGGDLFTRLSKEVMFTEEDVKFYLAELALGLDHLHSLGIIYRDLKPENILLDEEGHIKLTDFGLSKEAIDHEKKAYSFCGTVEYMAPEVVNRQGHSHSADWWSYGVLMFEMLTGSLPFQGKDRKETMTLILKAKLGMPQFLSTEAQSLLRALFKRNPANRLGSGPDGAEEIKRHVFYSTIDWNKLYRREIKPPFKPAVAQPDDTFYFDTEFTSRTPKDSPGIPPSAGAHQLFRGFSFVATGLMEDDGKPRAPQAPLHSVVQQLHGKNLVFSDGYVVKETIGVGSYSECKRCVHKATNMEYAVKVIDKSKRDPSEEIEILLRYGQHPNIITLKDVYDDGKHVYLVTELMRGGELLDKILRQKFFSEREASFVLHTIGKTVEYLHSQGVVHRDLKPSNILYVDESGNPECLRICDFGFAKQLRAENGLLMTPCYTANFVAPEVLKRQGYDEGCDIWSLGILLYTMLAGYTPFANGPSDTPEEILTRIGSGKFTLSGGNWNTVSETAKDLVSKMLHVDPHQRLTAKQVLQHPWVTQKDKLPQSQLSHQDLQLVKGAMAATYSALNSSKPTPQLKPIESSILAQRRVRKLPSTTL

CN(C)CC#Cc1ccc(OCCCc2sc(N3CCc4cccc(C(=O)Nc5nc6ccccc6s5)c4C3)nc2C(=O)O)c(F)c1 [A-1155463]
inactive: residual activity [1] 100% | residual activity [2] 98% | residual activity [3] 92% | residual activity [4] 90% | residual activity [5] 95% | residual activity [6] 99% | residual activity [7] 100% | residual activity [8] 84% | residual activity [9] 80% | residual activity [10] 81% | inhibition [11] 1.97% | residual activity [12] 100% | residual activity [13] 98% | residual activity [14] 100% | residual activity [15] 100% | residual activity [16] 100% | residual activity [17] 82% | residual activity [18] 99% | residual activity [19] 100% | residual activity [20] 97% | residual activity [21] 100% | residual activity [22] 83% | inhibition [23] -3.11% | residual activity [24] 92% | residual activity [25] 96% | residual activity [26] 100% | residual activity [27] 92% | residual activity [28] 91% | residual activity [29] 100% | residual activity [30] 100% | residual activity [31] 100% | residual activity [32] 74%
